Publication PMC3265359 (Biochemical Journal, 2010)
Where two headings read alike, the source gives them in different places.

Columns and labels:
COX-1 = molecular target: T1, COX-1 (Ovis aries, UniProt P05979); assay: Inhibition of COX-1 activity by quantification of PGE2; format: biochemical
T1 sequence (P05979 25-600): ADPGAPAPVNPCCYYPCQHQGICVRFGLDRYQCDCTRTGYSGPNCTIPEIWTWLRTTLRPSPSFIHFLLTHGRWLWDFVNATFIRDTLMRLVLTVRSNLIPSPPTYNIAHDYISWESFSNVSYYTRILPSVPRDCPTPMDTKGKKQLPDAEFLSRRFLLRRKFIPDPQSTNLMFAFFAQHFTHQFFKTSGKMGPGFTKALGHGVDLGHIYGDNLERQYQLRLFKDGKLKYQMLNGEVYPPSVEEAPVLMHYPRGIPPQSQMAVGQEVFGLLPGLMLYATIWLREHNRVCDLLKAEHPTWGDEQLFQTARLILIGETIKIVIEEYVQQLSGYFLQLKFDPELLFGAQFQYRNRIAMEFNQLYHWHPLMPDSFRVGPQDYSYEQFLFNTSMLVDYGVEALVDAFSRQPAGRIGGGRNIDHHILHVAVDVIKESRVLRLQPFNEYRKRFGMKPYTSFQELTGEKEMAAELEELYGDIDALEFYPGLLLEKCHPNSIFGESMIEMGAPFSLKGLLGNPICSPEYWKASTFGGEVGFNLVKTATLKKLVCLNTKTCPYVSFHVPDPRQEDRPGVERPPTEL

COX-2 = molecular target: T2, COX-2 (Homo sapiens, UniProt P35354); assay: Inhibition of COX-2 activity by quantification of PGE2; format: biochemical
T2 sequence (P35354 18-604): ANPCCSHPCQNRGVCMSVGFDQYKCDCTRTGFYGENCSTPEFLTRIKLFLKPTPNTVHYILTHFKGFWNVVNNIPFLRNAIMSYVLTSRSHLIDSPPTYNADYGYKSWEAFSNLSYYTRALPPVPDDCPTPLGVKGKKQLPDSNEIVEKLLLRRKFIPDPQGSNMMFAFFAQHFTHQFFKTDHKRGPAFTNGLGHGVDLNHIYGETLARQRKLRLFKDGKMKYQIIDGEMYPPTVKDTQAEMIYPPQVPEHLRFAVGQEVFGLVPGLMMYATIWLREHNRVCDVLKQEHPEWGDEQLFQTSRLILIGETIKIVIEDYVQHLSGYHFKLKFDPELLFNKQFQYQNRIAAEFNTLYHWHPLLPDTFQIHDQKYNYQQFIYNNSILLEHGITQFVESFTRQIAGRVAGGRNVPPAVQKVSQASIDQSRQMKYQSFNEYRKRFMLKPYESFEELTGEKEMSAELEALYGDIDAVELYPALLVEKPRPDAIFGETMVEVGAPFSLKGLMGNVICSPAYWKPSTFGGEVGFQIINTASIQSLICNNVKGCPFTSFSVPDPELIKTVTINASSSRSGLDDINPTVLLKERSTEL

QR2 [1] = molecular target: T3, QR2 (Homo sapiens, UniProt P16083); assay: QR2 steady-state kinetics; format: biochemical; conditions: for Ki: read-out: QR2 Ki, Table 1 value; for Inhibition of QR2: up to 100 μM compound, 5 nM QR2, 100 μM NMeH, 30 μM menadione
T3 sequence (P16083 1-231): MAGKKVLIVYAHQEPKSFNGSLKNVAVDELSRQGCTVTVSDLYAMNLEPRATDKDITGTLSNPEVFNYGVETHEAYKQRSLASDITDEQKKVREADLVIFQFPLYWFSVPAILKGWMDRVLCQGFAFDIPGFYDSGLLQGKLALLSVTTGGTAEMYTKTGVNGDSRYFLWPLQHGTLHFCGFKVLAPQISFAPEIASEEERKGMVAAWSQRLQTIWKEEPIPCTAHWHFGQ

[2] = after an oral dose of pure resveratrol; cited from earlier work
SIRT1 = molecular target: T4, SIRT1 (Homo sapiens, UniProt Q96EB6); assay: ITC titration of resveratrol into SIRT1; format: binding; conditions: 20 μM SIRT1, no substrates
T4 sequence (Q96EB6 1-747): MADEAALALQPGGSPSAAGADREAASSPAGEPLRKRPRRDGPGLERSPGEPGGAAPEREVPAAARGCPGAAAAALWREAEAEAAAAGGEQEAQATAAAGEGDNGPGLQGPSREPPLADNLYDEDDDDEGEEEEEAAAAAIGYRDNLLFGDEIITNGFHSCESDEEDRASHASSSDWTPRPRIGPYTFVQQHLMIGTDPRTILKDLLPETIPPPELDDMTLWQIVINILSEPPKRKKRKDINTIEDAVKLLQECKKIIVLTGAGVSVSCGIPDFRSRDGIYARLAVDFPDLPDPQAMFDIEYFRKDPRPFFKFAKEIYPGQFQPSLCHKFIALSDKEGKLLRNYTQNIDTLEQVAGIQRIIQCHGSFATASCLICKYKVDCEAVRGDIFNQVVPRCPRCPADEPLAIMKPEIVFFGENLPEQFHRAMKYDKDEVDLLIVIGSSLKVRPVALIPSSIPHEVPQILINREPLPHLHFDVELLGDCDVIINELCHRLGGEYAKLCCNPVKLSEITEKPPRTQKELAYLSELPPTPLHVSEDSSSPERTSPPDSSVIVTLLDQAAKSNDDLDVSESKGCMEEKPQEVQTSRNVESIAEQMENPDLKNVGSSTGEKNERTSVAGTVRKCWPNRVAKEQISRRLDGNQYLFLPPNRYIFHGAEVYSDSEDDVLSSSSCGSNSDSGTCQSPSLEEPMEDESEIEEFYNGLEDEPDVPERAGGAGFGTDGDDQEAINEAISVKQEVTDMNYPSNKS

QR2 [3] = molecular target: T3, QR2; assay: ITC titration of resveratrol into QR2; format: binding
QR1 = assay: Effect of resveratrol on QR1 activity in Hepa 1c1c7 cells; format: cell-based; conditions: Hepa 1c1c7 mouse hepatoma cells, 48 h

IC50 (COX-1; read-out: COX-1 IC50, PGE2 produced from arachidonic acid) | Compound | IC50 (COX-1) | IC50 (COX-2) | Ki (QR2 [1]) | Inhibition of QR2 (QR2 [1]) | Human plasma concentration [2] | Binding to SIRT1 by ITC (SIRT1) | ΔH of binding to QR2 (QR2 [3]) | TΔS of binding to QR2 (QR2 [3]; as printed in Figure 6 legend) | N (ITC binding stoichiometry, QR2) (QR2 [3]; single binding site model) | Effect on QR1 activity (QR1) | QR2 Ki, uncompetitive against menadione (QR2 [1]; varied menadione, NMeH 100 μM)
150 ± 5.8 µM | O=C(O)[C@H]1O[C@@H](Oc2cc(O)cc(/C=C/c3ccc(O)cc3)c2)[C@H](O)[C@@H](O)[C@@H]1O [Resveratrol-3-O-glucuronide, resveratrol-3-O-glucuronide] |  |  |  |  |  |  |  |  |  |  | 
 | O=S(=O)(O)Oc1ccc(C=Cc2cc(O)cc(O)c2)cc1 [Resveratrol-4′-O-sulfate, resveratrol-4′-O-sulfate] | 5.1 ± 0.55 µM | 2.5 ± 0.35 µM | > 100 µM | cannot detect any inhibitory activity | 2 to 10 µM |  |  |  |  |  | 
 | O=S(=O)(O)Oc1cc(O)cc(C=Cc2ccc(O)cc2)c1 [Resveratrol-3-O-sulfate, resveratrol-3-O-sulfate] | 68 ± 2.8 µM | > 300 µM | > 100 µM | cannot detect any inhibitory activity |  |  |  |  |  |  | 
 | Oc1ccc(/C=C/c2cc(O)cc(O)c2)cc1 [Resveratrol, 3,5, 4′-trans-trihydroxystilbene] | 1.1 ± 0.44 µM |  |  |  |  | no detectable change in heat | –14 kcal/mol | 3.9 kcal/mol | 0.9 | only a weak activator | 0.9 ± 0.1 µM
